Measurements reported in patent publication US20230058623A1, “NOVEL HETEROARYL-TRIAZOLE COMPOUNDS AS PESTICIDES” (Bayer Aktiengesellschaft, priority 2019, published 2023).

Tests used:
Type in all cases: in vivo
[1] = system: Rhipicephalus (Boophilus) microplus larvae (strain Parkhurst, resistant against synthetic pyrethroids); assay: Rhipicephalus (Boophilus) microplus in-vitro contact test, larval cattle tick; conditions: after 48 hours, read-out: activity (efficacy: larvae dead or moribund); for pest or weed control at 1 µg/cm2, 100 g/ha: application rate 1 μg/cm^2 (=100 g/ha); for pest or weed control at 5 µg/cm2, 500 g/ha: application rate 5 μg/cm^2 (=500 g/ha)
In short: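 Pyrethroid-resistant Parkhurst larvae, 20–50 per tube, were kept 48 h at 27 °C and 85% relative humidity in glass tubes whose inner walls carried a dried acetone film of compound (900 ppm giving 5 μg/cm^2). Dead or moribund larvae, judged by loss of negative geotactic behavior, set percent efficacy.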

[2] = system: adult engorged female ticks (Rhipicephalus microplus); assay: Rhipicephalus (Boophilus) microplus injection test; conditions: 168 h, application rate 4 μg/tick, egg deposition after 7 days, read-out: activity (efficacy: infertile eggs)
In short: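 Compound in DMSO (10 mg per 0.5 mL, then diluted with DMSO to test concentration); 1 μL injected into the abdomen of each of five engorged females, then held in a climate chamber. Fertile egg deposition checked at 7 days; efficacy 100% = all eggs infertile, 0% = all fertile.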

[3] = system: adult unfed cat fleas (Ctenocephalides felis); assay: Ctenocephalides felis oral test; conditions: 48 h, read-out: activity (mortality)
Description: Ctenocephalides felis—Oral Test
Solvent: dimethyl sulfoxide
To produce a suitable preparation of active compound, 10 mg of active compound are dissolved in 0.5 mL solvent, and the concentrate is diluted with citrated cattle blood to the desired concentration.
Approximately 20 adult unfed cat fleas (Ctenocephalides felis) are placed in a flea chamber whose top and bottom is covered with gauze. A chamber whose bottom is sealed with parafilm, is filled with the blood-compound solution and placed on top of the flea chamber, so that the fleas can suck the blood. The blood chamber is heated to 37° C. whereas the flea chamber is kept at room temperature.
After 2 days mortality in % is determined. 100% means all the fleas have been killed; 0% means none of the fleas have been killed.

[4] = system: larvae of the banded cucumber beetle (Diabrotica balteata); assay: Diabrotica balteata spray test; conditions: 168 h, application rate 100 g/ha (=32 μg/well), after 7 days, wheat seeds, read-out: activity (efficacy: seedlings grown)
In short: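 Efficacy (%) read 7 days after infesting treated seedlings with 10-20 banded cucumber beetle larvae, 100% meaning growth as in uninfected untreated control and 0% no growth. Test solutions in water containing 1000 ppm emulsifier were sprayed onto wheat seeds germinated for 1 day on agar.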

[5] = system: fall armyworm larvae (Spodoptera frugiperda); assay: Spodoptera frugiperda spray test; conditions: 168 h, application rate 100 g/ha, after 7 days, maize leaf sections
In short: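 Leaf-spray assay on maize: sections treated with active ingredient at the desired concentration in emulsifier-containing water (1000 ppm) and, once dry, exposed to armyworm caterpillars. Kill rate is expressed in percent after seven days.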

[6] = system: adult brown dog ticks (Rhipicephalus sanguineus); assay: Rhipicephalus sanguineus in-vitro contact test, adult brown dog ticks; conditions: application rate 5 μg/cm^2 (=500 g/ha), after 48 hours, read-out: activity (efficacy: ticks dead or moribund)
In short: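 Glass tubes are coated with compound dissolved in acetone, a 900 ppm solution yielding 5 μg/cm^2 on the inner surface. Adult ticks (5-10 per tube) are kept on the dry film at room temperature for 48 h, then those unable to escape 45-50° C heat are counted as dead or moribund.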

[7] = system: green peach aphid (Myzus persicae); assay: Myzus persicae oral test; conditions: 120 h, read-out: activity (mortality)
In short: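 Readout: % mortality at day 5, where 100% = all aphids dead and 0% = none dead. Feeding via parafilm membrane over compound in IPL41 medium (33%+15% sugar); mixed-age population. Stock in acetone (1:100 w/w), water-diluted.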

[8] = system: adult cat fleas (Ctenocephalides felis); assay: Ctenocephalides felis in-vitro contact test, adult cat flea; conditions: application rate 5 μg/cm^2 (=500 g/ha), after 48 hours, read-out: activity (efficacy: fleas dead or moribund)
In short: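 After 48 h of room-temperature exposure in tubes whose walls carried dried compound residue (5 μg/cm^2, from 900 ppm acetone solution), adult cat fleas (5-10 per tube) were heat-challenged at 45-50° C up to 5 min. Fleas unable to climb away were counted dead or moribund, expressed as % efficacy.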

[9] = system: green peach aphid (Myzus persicae); assay: Myzus persicae spray test; conditions: foliar, 120 h, application rate 100 g/ha, after 5 days, Chinese cabbage leaf disks, read-out: activity (mortality)
In short: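 Percent kill was recorded 5 days after spraying. Test solutions, prepared with solvent and diluted in 1000 ppm emulsifier water, were applied to Brassica pekinensis leaf disks carrying mixed-instar green peach aphids.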

[10] = system: larvae of the southern green stink bug (Nezara viridula); assay: Nezara viridula spray test; conditions: 96 h, application rate 100 g/ha, after 4 days, barley plants
Description: Nezara viridula—Spray Test
To produce a suitable preparation of active compound, 1 part by weight of active compound is mixed with the stated amount of solvent, and the concentrate is diluted with water, containing an emulsifier concentration of 1000 ppm, to the desired concentration. Further test concentrations are prepared by dilution with emulsifier containing water.
Barley plants (Hordeum vulgare) are sprayed with a test solution containing the desired concentration of the active ingredient and are infested with larvae of the southern green stink bug (Nezara viridula).
After 4 days mortality in % is determined. 100% means all the stink bugs have been killed; 0% means none of the stink bugs have been killed.

[11] = system: adult mosquitoes Aedes aegypti strain MONHEIM; assay: Aedes aegypti test (AEDSAE surface treatment & contact assay); conditions: surface concentration 20 mg/m^2, exposure 30 minutes, 24 hours after contact, read-out: efficacy (mortality)
Description: Aedes aegypti Test (AEDSAE Surface Treatment & Contact Assay)
(§1) Solvent: Aceton+2000 ppm rapeseed oil methyl ester (RME)
(§2) In order to produce a sufficient, active ingredient containing solution it is necessary to solve the test compound in the solvent-mix (acetone at 2 mg/ml/RME 2000 ppm). This solution is pipetted onto a glazed tile and after evaporation of the acetone, adult mosquitoes of the species Aedes aegypti strain MONHEIM are placed onto the dried surface. The exposure time is 30 minutes.
(§3) Mortality in percent (%) is determined 24 hours after contact of the insects to the treated surface. 100% mortality means that all tested insects are dead, whereas 0% means that no insect died.

[12] = system: adult flies Musca domestica strain WHO-N; assay: Musca domestica test (MUSCDO surface treatment & contact assay); conditions: 24 hours after contact, read-out: efficacy (mortality)
Description: Musca domestica Test (MUSCDO Surface Treatment & Contact Assay)
as §1
as §2, with “flies” for “mosquitoes”, “Musca domestica” for “Aedes aegypti”, “WHO-N” for “MONHEIM”
as §3

SMILES | pest or weed control at 1 µg/cm2, 100 g/ha [1] [%] | pest or weed control at 5 µg/cm2, 500 g/ha [1] [%] | pest or weed control at 0.004 mg [2] [%] | mortality at 100 ppm [3] [%] | pest or weed control at 32 µg/disc, 100 g/ha [4] [%] | mortality at 100 g/ha [5] [%] | pest or weed control at 5 µg/cm2, 500 g/ha [6] [%] | mortality at 4 ppm [7] [%] | pest or weed control at 5 µg/cm2 [8] [%] | mortality at 20 ppm [7] [%] | mortality at 100 g/ha [9] [%] | mortality at 100 g/ha [10] [%] | mortality at 20 mg/m2 [11] [%] | mortality at 4 mg/m2 ([12]; surface concentration 4 mg/m^2, exposure 30 minutes) [%] | mortality at 20 mg/m2 ([12]; surface concentration 20 mg/m^2, exposure 30 minutes) [%]
CC(NC(=O)c1cc(C(F)(F)F)cc(C(F)(F)F)c1)c1nc(I)nn1-c1ccc(C(=O)N2CCOCC2)cn1 (racemic) [Example I-84, N-[1-[5-iodo-2-[5-(morpholine-4-carbonyl)-2-pyridyl]-1,2,4-triazol-3-yl]ethyl]-3,5-bis(trifluoromethyl)benzamide] | 100 | 100 | 100 | 100 | 100 | 100 | – | – | – | – | – | – | – | – | –
CC(NC(=O)c1cc(Br)cc(Br)c1)c1nc(Cl)nn1-c1ccc(C(=O)N2CCOCC2)cn1 (racemic) [Example I-87, 3,5-Dibromo-N-[1-[5-chloro-2-[5-(morpholine-4-carbonyl)-2-pyridyl]-1,2,4-triazol-3-yl]ethyl]benzamide] | 100 | 90 | 100 | 90 | – | – | – | – | – | – | – | – | – | – | –
C[C@H](NC(=O)c1cc(C(F)(F)F)cc(C(F)(F)F)c1)c1ncnn1-c1cc(C(=O)N2CCOCC2)ccn1 [Example I-3] | 100 | 100 | – | 90 | – | – | 100 | 90 | – | – | – | – | – | – | –
C[C@H](NC(=O)c1cc(C(F)(F)F)cc(C(F)(F)F)c1)c1ncnn1-c1ccc(C(=O)N2CCCC(O)C2)cn1 (some centres unmarked) [Example I-7] | 90 | 90 | 100 | 90 | – | – | – | 100 | 90 | – | – | – | – | – | –
Cc1nc([C@H](C)NC(=O)c2cc(C(F)(F)F)cc(C(F)(F)F)c2)n(-c2ncc(C(=O)N3CCC3)s2)n1 [Example I-17] | 100 | 100 | 100 | 100 | – | 100 | – | 100 | 80 | – | – | – | – | – | –
Cc1nc([C@H](C)NC(=O)c2cc(Cl)cc(C(F)(F)F)c2)n(-c2ccc(C(=O)N3CC[C@H](F)C3)cn2)n1 [Example I-18] | 100 | 90 | 100 | 100 | – | 100 | 100 | – | 90 | – | – | – | – | – | –
Cc1nc([C@H](C)NC(=O)c2cc(Cl)cc(C(F)(F)F)c2)n(-c2ccc(C(=O)N3CC[C@@H](F)C3)cn2)n1 [Example I-19] | 100 | 100 | 100 | 100 | – | 100 | 100 | 90 | 100 | – | – | – | – | – | –
Cc1nc([C@H](C)NC(=O)c2cc(Cl)cc(C(F)(F)F)c2)n(-c2ccc(C(=O)N3CCCC3)cn2)n1 [Example I-22] | 90 | 90 | 100 | 80 | – | 100 | 100 | – | 90 | – | – | – | – | – | –
C[C@H](NC(=O)c1cc(Cl)cc(C(F)(F)F)c1)c1ncnn1-c1ccc(C(=O)N2CCOC[C@@H]2C)cn1 [Example I-37] | 100 | 100 | 100 | 80 | 100 | 100 | 100 | – | – | – | – | – | – | – | –
C[C@H](NC(=O)c1cc(Cl)cc(C(F)(F)F)c1)c1ncnn1-c1ccc(C(=O)N2CCN(C)CC2)cn1 [Example I-42] | 100 | – | 100 | 80 | 80 | – | – | – | – | – | – | – | – | – | –
CC(NC(=O)c1cc(Cl)cc(OC(F)(F)F)c1)c1nc(C(F)F)nn1-c1ccc(C(=O)N2CCOCC2)cn1 (centres unmarked) [Example I-59] | – | – | 100 | 100 | 80 | – | – | – | – | 100 | – | – | – | – | –
Cc1nc([C@H](C)NC(=O)c2cc(C(F)(F)F)cc(C(F)(F)F)c2)n(-c2ccc(C(=O)N3CCO[C@H](C)C3)cn2)n1 [Example I-70] | 100 | 100 | – | – | 100 | 100 | 100 | 100 | 100 | – | 90 | 90 | 80 to 100 | 80 to 100 | 80 to 100
C[C@H](NC(=O)c1cc(Cl)cc(C(F)(F)F)c1)c1ncnn1-c1ccc(N2CC(F)(F)C2)cn1 [Example I-108] | – | – | – | 100 | – | – | – | – | – | – | – | – | – | – | –
Cc1nc([C@H](C)NC(=O)c2cc(OC(F)(F)F)cc(C3CC3)c2)n(-c2ccc(C(=O)N3C[C@@H](C)O[C@H](C)C3)cn2)n1 [Example I-117] | 90 | 90 | 100 | 90 | – | – | 100 | 100 | 100 | – | 90 | – | – | – | –
